Measurements reported in PubChem BioAssay (NCI).
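These data come from cells grown in 96-well plates and exposed to compound for 48 hours at five concentrations. At the GI50, growth is halved. TGI denotes the concentration required for complete inhibition of growth.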

Key:
Experiment in all cases: growth of human tumour cells (NCI), 48 h
SF-295 CNS = test system: SF-295 CNS
KM12 colon = test system: KM12 colon
RPMI-8226 leukemia = test system: RPMI-8226 leukemia
LOX IMVI melanoma = test system: LOX IMVI melanoma
CAKI-1 renal = test system: CAKI-1 renal
SK-MEL-2 melanoma = test system: SK-MEL-2 melanoma
OVCAR-8 ovarian = test system: OVCAR-8 ovarian
CCRF-CEM leukemia = test system: CCRF-CEM leukemia
MDA-MB-435 = test system: MDA-MB-435
SR leukemia = test system: SR leukemia
IGROV1 ovarian = test system: IGROV1 ovarian
HCC-2998 colon = test system: HCC-2998 colon
HCT-15 colon = test system: HCT-15 colon
BT-549 breast = test system: BT-549 breast
HS 578T breast = test system: HS 578T breast
NCI-H226 lung = test system: NCI-H226 lung
NCI-H23 lung = test system: NCI-H23 lung
EKVX NSCLC = test system: EKVX NSCLC
MCF7 breast = test system: MCF7 breast
SNB-75 CNS = test system: SNB-75 CNS
HCT-116 colon = test system: HCT-116 colon
SNB-19 CNS = test system: SNB-19 CNS
NCI-H460 lung = test system: NCI-H460 lung
A549 NSCLC = test system: A549 NSCLC
SK-OV-3 ovarian = test system: SK-OV-3 ovarian
T-47D breast = test system: T-47D breast
SK-MEL-28 melanoma = test system: SK-MEL-28 melanoma
OVCAR-3 ovarian = test system: OVCAR-3 ovarian
HT29 colon = test system: HT29 colon
786-0 renal = test system: 786-0 renal
MOLT-4 leukemia = test system: MOLT-4 leukemia
HOP-92 NSCLC = test system: HOP-92 NSCLC
RXF 393 renal = test system: RXF 393 renal
DU-145 prostate = test system: DU-145 prostate
MALME-3M melanoma = test system: MALME-3M melanoma
SW-620 colon = test system: SW-620 colon
A498 renal = test system: A498 renal
HL-60(TB) leukemia = test system: HL-60(TB) leukemia
OVCAR-5 ovarian = test system: OVCAR-5 ovarian
ACHN renal = test system: ACHN renal
UACC-62 melanoma = test system: UACC-62 melanoma
TK-10 renal = test system: TK-10 renal
HOP-62 NSCLC = test system: HOP-62 NSCLC
U251 CNS = test system: U251 CNS
SF-268 CNS = test system: SF-268 CNS
PC-3 prostate = test system: PC-3 prostate
NCI/ADR-RES ovarian = test system: NCI/ADR-RES ovarian
OVCAR-4 ovarian = test system: OVCAR-4 ovarian
M14 melanoma = test system: M14 melanoma
UO-31 renal = test system: UO-31 renal
MDA-MB-231 breast = test system: MDA-MB-231 breast
UACC-257 melanoma = test system: UACC-257 melanoma
NCI-H522 lung = test system: NCI-H522 lung
SK-MEL-5 melanoma = test system: SK-MEL-5 melanoma
SN12C renal = test system: SN12C renal
COLO 205 colon = test system: COLO 205 colon
SF-539 CNS = test system: SF-539 CNS

CCc1ccc(C(=O)/C=C/C23c4ccccc4C(c4ccccc42)C2C(=O)NC(=O)C23)cc1 (centres undefined)
GI50 (SF-295 CNS): 2.45 µM
TGI (SF-295 CNS): 5.73 µM
GI50 (KM12 colon): 1.82 µM
TGI (KM12 colon): 3.77 µM
GI50 (RPMI-8226 leukemia): 1.87 µM
TGI (RPMI-8226 leukemia): 4.6 µM
GI50 (LOX IMVI melanoma): 1.67 µM
TGI (LOX IMVI melanoma): 3.16 µM
GI50 (CAKI-1 renal): 2.27 µM
TGI (CAKI-1 renal): 7.29 µM
GI50 (SK-MEL-2 melanoma): 2.23 µM
TGI (SK-MEL-2 melanoma): 4.65 µM
GI50 (OVCAR-8 ovarian): 2.09 µM
TGI (OVCAR-8 ovarian): 5.68 µM
GI50 (CCRF-CEM leukemia): 2.66 µM
TGI (CCRF-CEM leukemia): 11 µM
GI50 (MDA-MB-435): 2.31 µM
TGI (MDA-MB-435): 5.53 µM
GI50 (SR leukemia): 1.37 µM
TGI (SR leukemia): 4.36 µM
GI50 (IGROV1 ovarian): 1.76 µM
TGI (IGROV1 ovarian): 4.1 µM
GI50 (HCC-2998 colon): 2.09 µM
TGI (HCC-2998 colon): 3.65 µM
GI50 (HCT-15 colon): 1.79 µM
TGI (HCT-15 colon): 4.02 µM
GI50 (BT-549 breast): 1.73 µM
TGI (BT-549 breast): 3.67 µM
GI50 (HS 578T breast): 2.24 µM
TGI (HS 578T breast): 8.73 µM
GI50 (NCI-H226 lung): 2.68 µM
TGI (NCI-H226 lung): 9.12 µM
GI50 (NCI-H23 lung): 2.09 µM
TGI (NCI-H23 lung): 4.15 µM
GI50 (EKVX NSCLC): 1.6 µM
TGI (EKVX NSCLC): 3.56 µM
GI50 (MCF7 breast): 1.89 µM
TGI (MCF7 breast): 5.62 µM
GI50 (SNB-75 CNS): 1.67 µM
TGI (SNB-75 CNS): 3.45 µM
GI50 (HCT-116 colon): 1.58 µM
TGI (HCT-116 colon): 3.65 µM
GI50 (SNB-19 CNS): 1.93 µM
TGI (SNB-19 CNS): 3.96 µM
GI50 (NCI-H460 lung): 2.12 µM
TGI (NCI-H460 lung): 5.09 µM
GI50 (A549 NSCLC): 2.07 µM
TGI (A549 NSCLC): 5.54 µM
GI50 (SK-OV-3 ovarian): 2.84 µM
TGI (SK-OV-3 ovarian): 7.54 µM
GI50 (T-47D breast): 2.28 µM
TGI (T-47D breast): 6.4 µM
GI50 (SK-MEL-28 melanoma): 1.96 µM
TGI (SK-MEL-28 melanoma): 3.6 µM
GI50 (OVCAR-3 ovarian): 1.71 µM
TGI (OVCAR-3 ovarian): 3.1 µM
GI50 (HT29 colon): 2.2 µM
TGI (HT29 colon): 4.75 µM
GI50 (786-0 renal): 1.81 µM
TGI (786-0 renal): 3.54 µM
GI50 (MOLT-4 leukemia): 2.23 µM
TGI (MOLT-4 leukemia): 7.97 µM
GI50 (HOP-92 NSCLC): 1.73 µM
TGI (HOP-92 NSCLC): 3.5 µM
GI50 (RXF 393 renal): 1.72 µM
TGI (RXF 393 renal): 3.24 µM
GI50 (DU-145 prostate): 1.66 µM
TGI (DU-145 prostate): 3.08 µM
GI50 (MALME-3M melanoma): 1.82 µM
TGI (MALME-3M melanoma): 3.96 µM
GI50 (SW-620 colon): 2.37 µM
TGI (SW-620 colon): 5.72 µM
GI50 (A498 renal): 1.71 µM
TGI (A498 renal): 3.14 µM
GI50 (HL-60(TB) leukemia): 0.0697 µM
TGI (HL-60(TB) leukemia): 1.93 µM
GI50 (OVCAR-5 ovarian): 2.23 µM
TGI (OVCAR-5 ovarian): 5.57 µM
GI50 (ACHN renal): 3.35 µM
TGI (ACHN renal): 12.3 µM
GI50 (UACC-62 melanoma): 1.73 µM
TGI (UACC-62 melanoma): 3.48 µM
GI50 (TK-10 renal): 2.62 µM
TGI (TK-10 renal): 6.47 µM
GI50 (HOP-62 NSCLC): 2.87 µM
TGI (HOP-62 NSCLC): 8.82 µM
GI50 (U251 CNS): 1.75 µM
TGI (U251 CNS): 3.17 µM
GI50 (SF-268 CNS): 1.86 µM
TGI (SF-268 CNS): 4.09 µM
GI50 (PC-3 prostate): 1.73 µM
TGI (PC-3 prostate): 3.7 µM
GI50 (NCI/ADR-RES ovarian): 2.15 µM
TGI (NCI/ADR-RES ovarian): 4.73 µM
GI50 (OVCAR-4 ovarian): 2.9 µM
TGI (OVCAR-4 ovarian): 11.9 µM
GI50 (M14 melanoma): 2.07 µM
TGI (M14 melanoma): 4.74 µM
GI50 (UO-31 renal): 1.47 µM
TGI (UO-31 renal): 5.55 µM
GI50 (MDA-MB-231 breast): 2.76 µM
TGI (MDA-MB-231 breast): 8.33 µM
GI50 (UACC-257 melanoma): 1.9 µM
TGI (UACC-257 melanoma): 4.15 µM
GI50 (NCI-H522 lung): 1.96 µM
TGI (NCI-H522 lung): 4.89 µM
GI50 (SK-MEL-5 melanoma): 1.65 µM
TGI (SK-MEL-5 melanoma): 3.21 µM
GI50 (SN12C renal): 1.76 µM
TGI (SN12C renal): 3.42 µM
GI50 (COLO 205 colon): 2.13 µM
TGI (COLO 205 colon): 4.02 µM
GI50 (SF-539 CNS): 1.69 µM
TGI (SF-539 CNS): 3.22 µM
